Article PMC10096175, “An In Vitro Antimicrobial, Anticancer and Antioxidant Activity of N–[(2–Arylmethylthio)phenylsulfonyl]cinnamamide Derivatives” (Molecules, 2023)
≈ marks a conversion by molar mass, not a printed value. Read-outs that look alike come from different tables or passages of the source. Values belong to the compound of their own block, whether it stands above or below them.

Legend:
[1] = tested on: quorum sensing system of C. violaceum; set-up: method as in doi:10.1016/j.ibiod.2018.06.003; details: cited from earlier work
HeLa cells = assay: MTT assay; type: cell-based, human; details: for IC50: Homo sapiens, HeLa, 24 h
MCF-7 cells = assay: MTT assay; type: cell-based, human; details: for IC50: Homo sapiens
SKOV-3 cells = assay: MTT assay; type: cell-based, human; details: for IC50: Homo sapiens
C. albicans ATCC 10231 = assay: MIC determination, reference fungal strain (microdilution); type: cell-based; details: Candida albicans, ATCC10231
DPPH assay = details: DPPH radical scavenging; 40 min, room temperature
Protocol: The DPPH assay was performed spectrophotometrically. The amount of 30 µL of different concentrations of samples, dissolved in methanol/DMSO (9/1 v/v), was mixed with 170 µL of 0.06 mM DPPH methanolic solution and completed with methanol to a final volume of 300 µL. DPPH methanolic solution with methanol/DMSO (9/1 v/v) was used as a control. After 40 min of incubation at room temperature in the dark, the absorbance was analyzed at λ = 510 nm by a 96-well microplate reader (Epoch, BioTek System, Santa Clara, CA, USA). Ascorbic acid was used as a standard.
DPPH inhibition was calculated by the following equation:DPPH Inhibition (%) = [Acontrol − Asample)/Acontrol] × 100%
(§1) IC50 values of the samples were calculated using program GraFit v. 7.0 (Erithacus Software). The analysis was performed three times, with tree replications in each (n = 9). Statistical analysis was performed with one-way ANOVA with Tuckey’s post-hoc test.

ABTS assay = details: ABTS radical scavenging; 10 min, 30 °C
Protocol: The ABTS assay was performed spectrophotometrically. […] ABTS solution with methanol/DMSO (9/1 v/v) was used as a control. After 10 min of incubation at 30 °C in the dark, the absorbance was analyzed at λ = 750 nm by a 96-well microplate reader (Epoch, BioTek System, Santa Clara, CA, USA). Ascorbic acid was used as a standard.
ABTS inhibition was calculated by the following equation:ABTS Inhibition (%) = [Acontrol − Asample)/Acontrol] × 100%
as §1

B. subtilis ATCC 6633 = assay: MIC determination, reference strain (microdilution); type: cell-based; details: Bacillus subtilis, ATCC6633
E. faecalis ATCC 51299 = assay: as above; type: cell-based; details: Enterococcus faecalis, ATCC51299
E. coli ATCC 8739 = assay: as above; type: cell-based; details: Escherichia coli, ATCC8739
[2] = tested on: S. epidermidis ATCC 14990; assay: as above; type: cell-based; details: Staphylococcus epidermidis, ATCC14990
S. aureus ATCC 6538 [3] = assay: as above; type: cell-based; details: Staphylococcus aureus, ATCC6538
C. diphtheriae = assay: as above; type: cell-based; details: Corynebacterium diphtheriae
[4] = tested on: cancer cells (HeLa, SKOV-3, MCF-7); assay: MTT assay, summary statements on the cancer cells; type: cell-based; details: Homo sapiens, cell line not specified, MTT
HEK-293 cells = assay: MTT assay, noncancerous cells; type: cell-based; details: Homo sapiens
E. hirae ATCC 10541 = assay: MIC determination, reference strain (microdilution); type: cell-based; details: Enterococcus hirae, ATCC10541
in vitro = details: sheep, pH 7
[5] = tested on: S. epidermidis ATCC 14990; assay: Blood bacteriostatic activity test in sheep blood; type: cell-based, Staphylococcus epidermidis; details: 24 h, 37 °C, t0 1.70 × 10^7, control t24 5.10 × 10^8
Protocol: (§2) The manifestation of the bactericidal properties of chemical compounds is low minimum bactericidal concentration (MBC) values, which allows many groups of researchers to check the killing rate over time (time killing tests). It is an important element in determining the strength and speed of action of a compound on bacteria. Such studies are usually carried out in bacterial media, without additional factors influencing the results.
(§3) This step was carried out on two types of bacteria, S. aureus ATCC 6538 (Figure 8 and Table 2) and S. epidermidis ATCC 14 990 (Figure 9 and Table 3).
(§4) The number of bacteria at the initial time (t0) was 1.30 × 10^8 CFU/mL for S. aureus and 1.70 × 10^7 CFU/mL for S. epidermidis. Live bacterial cells were assayed after 24 h of incubation at 37 °C. […] Bacterial controls without compounds grew unhindered and after 24 h (t24) were 2.28 × 10^9 for S. aureus and 5.10 × 10^8 CFU/mL for S. epidermidis. […] It can be assumed that the tested compounds were not related to any fraction of the blood. Attention should be paid to the S. epidermidis tests and the difference between the number of bacteria at t0 and after 24 h of incubation for each compound. The number of bacteria at t0 was 1.70 × 10^7 CFU/mL and after 24 h it decreased to, e.g., 9.40 × 10^6 CFU/mL for compounds 16e and 7.80 × 10^6 CFU/mL for compound 17c. It can be assumed that the tested compounds after being added to blood samples prevented bacteria from multiplying. However, under these conditions, the phagocytic cells take up the bacteria. […] This can be explained by much greater variety of mechanisms of action of S. aureus against phagocytic cells than of S. epidermidis. This can be integrated with the bacterial cell compounds, e.g., protein A, as well as enzymes that bacteria can secrete outside the cell, e.g., coagulase and staphylokinase. Additional studies should be conducted to check how the tested compounds affect the enzymes secreted by S. aureus.
(§5) The assay was performed as previously described by with a modification. Pure sheep blood was used for the research. Two strains of bacteria S. aureus ATCC 6538 and S. epidermidis ATCC 14990 were used with an inoculum density of approximately 10^8 CFU/mL at 0 time. The final concentration of the compounds was 0.5, 1, 2, 4, and 8 µg/mL, and the final volume of the assay tube was 1 mL. Bacterial survivors were determined on MH agar plates (CFU/mL) at 24 h after exposure.

S. aureus ATCC 6538 [6] = assay: Blood bacteriostatic activity test in sheep blood; type: cell-based, Staphylococcus aureus; details: 24 h, 37 °C, t0 1.30 × 10^8, control t24 2.28 × 10^9
Protocol: as §2, §3, §4, §5

[7] = MTT, 24 h treatment, read-out: IC50
[8] = MCF7, MCF-7, MTT, 24 h treatment, read-out: IC50
[9] = SK-OV-3, SKOV-3, MTT, 24 h treatment, read-out: IC50
[10] = C. albicans ATCC 10231, read-out: MIC

Structure (SMILES): OCC=Cc1ccccc1 [cinnamyl alcohol]
Quorum sensing inhibition ([1]; at 1 mM): completely inhibit

IC50 (HeLa cells; [7]): 0.005 ± 0.0004 µg/mL
IC50 (MCF-7 cells; [8]): 0.007 ± 0.0008 µg/mL
IC50 (SKOV-3 cells; [9]): 0.008 ± 0.0003 µg/mL
Structure (SMILES): CC[C@]1(O)C[C@@H]2CN(CCc3c([nH]c4ccccc34)[C@@](C(=O)OC)(c3cc4c(cc3OC)N(C)[C@H]3[C@@](O)(C(=O)OC)[C@H](OC(C)=O)[C@]5(CC)C=CCN6CC[C@]43[C@@H]65)C2)C1 [V. sulphate, Vinblastine sulphate, reference compound]

Structure (SMILES): CC(=Cc1ccccc1)C(=O)O [α–methylcinnamic acid]
Quorum sensing inhibition ([1]; at 5 mM): completely inhibit

Structure (SMILES): C=CCOC(=O)C=Cc1ccccc1 [allyl cinnamate]
Quorum sensing inhibition ([1]; at 1 mM): completely inhibit

Structure (SMILES): O=C(O)C=Cc1ccc(Cl)cc1 [4–chlorocinnamic acid]
Quorum sensing inhibition ([1]; at 5 mM): completely inhibit

Structure (SMILES): O=C(O)C=Cc1ccc([N+](=O)[O-])cc1 [4–nitrocinnamic acid]
Quorum sensing inhibition ([1]; at 5 mM): completely inhibit

Structure (SMILES): O=C(O)/C=C/c1ccccc1 [cinnamic acid]
Quorum sensing inhibition ([1]; at 5 mM): completely inhibit

MIC (C. albicans ATCC 10231; [10]): > 125 µg/mL
Structure (SMILES): CC(=O)N1CCN(c2ccc(OCC3COC(Cn4ccnc4)(c4ccc(Cl)cc4Cl)O3)cc2)CC1 (centres unmarked) [Ketoconazole, reference compound]

IC50 DPPH (DPPH assay): 10.78 ± 0.11 µg/mL (≈ 61.2 µM)
IC50 ABTS (ABTS assay): 18.99 ± 0.03 µg/mL (≈ 108 µM)
Structure (SMILES): O=C1O[C@H]([C@@H](O)CO)C(O)=C1O [Ascorbic acid, ascorbic acid, reference compound]

Structure (SMILES): NC(=O)C=Cc1ccccc1 [cinnamamide]
Quorum sensing inhibition ([1]; at 5 mM): completely inhibit

MIC (B. subtilis ATCC 6633; B. subtilis ATCC 6633, Co-trimoxazole as sulfamethoxazole/trimethoprim, read-out: MIC): 62.5 ± 0.29 µg/mL (≈ 113 µM)
MIC (E. faecalis ATCC 51299; E. faecalis ATCC 51299, Co-trimoxazole as sulfamethoxazole/trimethoprim, read-out: MIC): 4 ± 0.15 µg/mL (≈ 7.23 µM)
MIC (E. coli ATCC 8739; E. coli ATCC 8739, Co-trimoxazole as sulfamethoxazole/trimethoprim, read-out: MIC): > 125 µg/mL
MIC (C. albicans ATCC 10231; [10]): > 125 µg/mL
IC50 DPPH (DPPH assay): 310.50 ± 0.73 µg/mL (≈ 561 µM)
MIC ([2]; S. epidermidis ATCC 14990, Co-trimoxazole as sulfamethoxazole/trimethoprim, read-out: MIC): 2 ± 0.58 µg/mL (≈ 3.62 µM)
IC50 (HeLa cells; [7]): 62.8 ± 3.75 µg/mL (≈ 114 µM)
MIC (S. aureus ATCC 6538 [3]; S. aureus ATCC 6538, ± SD, Co-trimoxazole as sulfamethoxazole/trimethoprim, read-out: MIC): 1 ± 0.29 µg/mL (≈ 1.81 µM)
MIC (C. diphtheriae; C. diphtheriae, Co-trimoxazole as sulfamethoxazole/trimethoprim, read-out: MIC): 62.5 ± 0.29 µg/mL (≈ 113 µM)
IC50 (MCF-7 cells; [8]): 93.5 ± 4.71 µg/mL (≈ 169 µM)
IC50 [4]: > 60 µg/mL
IC50 (SKOV-3 cells; [9]): 70.53 ± 0.21 µg/mL (≈ 128 µM)
MIC (E. hirae ATCC 10541; E. hirae ATCC 10541, Co-trimoxazole as sulfamethoxazole/trimethoprim, read-out: MIC): 4 ± 0.15 µg/mL (≈ 7.23 µM)
IC50 ABTS (ABTS assay): 597.53 ± 1.3 µg/mL (≈ 1080 µM)
Structure (SMILES): Cc1cc(S(=O)(=O)NC(=O)/C=C/c2ccc([N+](=O)[O-])cc2)c(SCc2cccc3ccccc23)cc1Cl [Compound 16f, (E)–N–{4–Chloro–5–methyl–2–[(naphthalen–1–yl)methylthio]phenylsulfonyl}–3–(4–nitrophenyl)acrylamide]
Selectivity index (SI) (HeLa cells; IC50 HEK-293 / IC50 HeLa): 1.5
Selectivity index (SI) (MCF-7 cells; IC50 HEK-293 / IC50 MCF-7): 1.0
Selectivity index (SI) (SKOV-3 cells; IC50 HEK-293 / IC50 SKOV-3): 1.3
IC50 (HEK-293 cells; HEK293, HEK-293, MTT, 24 h treatment, read-out: IC50): 94.5 ± 4.7 µg/mL (≈ 171 µM)
hemolysis at 24 h, 31.25 µg/mL (in vitro; defibrinated sheep blood diluted 1:9 v/v with PBS): 12 to 20%

Structure (SMILES): Cc1cc(S(=O)(=O)NC(=O)C=Cc2ccccc2)c(SCc2cccc3ccccc23)cc1Cl [Compound 16a, N–[4–Chloro–5–methyl–2–(naphthalen–1–ylmethylthio)benzenesulfonyl]cinnamamide]
MIC (B. subtilis ATCC 6633): 62.5 ± 0.29 µg/mL (≈ 123 µM)
MIC (E. faecalis ATCC 51299): 2 ± 0.58 µg/mL (≈ 3.94 µM)
MIC (E. coli ATCC 8739): > 125 µg/mL
MIC (C. albicans ATCC 10231): > 125 µg/mL
IC50 DPPH (DPPH assay): 1048.33 ± 0.48 µg/mL (≈ 2060 µM)
MIC [2]: 2 ± 0.58 µg/mL (≈ 3.94 µM)
IC50 (HeLa cells): 13.7 ± 1.12 µg/mL (≈ 27 µM)
MIC (S. aureus ATCC 6538 [3]): 1 ± 0.29 µg/mL (≈ 1.97 µM)
MIC (C. diphtheriae): 62.5 ± 0.29 µg/mL (≈ 123 µM)
IC50 (MCF-7 cells; MCF7, 24 h): 14.3 ± 0.28 µg/mL (≈ 28.2 µM)
IC50 (SKOV-3 cells; SK-OV-3, 24 h): 11.8 ± 0.8 µg/mL (≈ 23.3 µM)
IC50 (HEK-293 cells; HEK293, 24 h): 13.6 ± 0.19 µg/mL (≈ 26.7 µM)
MIC (E. hirae ATCC 10541): 4 ± 0.15 µg/mL (≈ 7.87 µM)
Number of viable cells of Staphylococcus epidermidis ([5]; 1 µg/mL): 3.00 × 10^6 CFU/mL
Number of viable cells of Staphylococcus epidermidis ([5]; 2 µg/mL): 4.00 × 10^6 CFU/mL
Number of viable cells of Staphylococcus epidermidis ([5]; 4 µg/mL): 1.10 × 10^6 CFU/mL
Number of viable cells of Staphylococcus epidermidis ([5]; 8 µg/mL): 2.50 × 10^6 CFU/mL
Number of viable cells of Staphylococcus aureus (S. aureus ATCC 6538 [6]; 1 µg/mL): 1.23 × 10^8 CFU/mL
Number of viable cells of Staphylococcus aureus (S. aureus ATCC 6538 [6]; 2 µg/mL): 7.50 × 10^8 CFU/mL
Number of viable cells of Staphylococcus aureus (S. aureus ATCC 6538 [6]; 4 µg/mL): 8.10 × 10^8 CFU/mL
Number of viable cells of Staphylococcus aureus (S. aureus ATCC 6538 [6]; 8 µg/mL): 1.29 × 10^8 CFU/mL
hemolysis at 24 h, 125 µg/mL (in vitro): 43%
IC50 ABTS (ABTS assay): 717.99 ± 1.01 µg/mL (≈ 1410 µM)

Structure (SMILES): O=C(O)C=Cc1ccc2c(c1)OCO2 [3,4–(methylenedioxy)cinnamic acid]
Quorum sensing inhibition ([1]; at 5 mM): completely inhibit
